Assay results taken from publication PMC6886798, “Expression of myeloid Src-family kinases is associated with poor prognosis in AML and influences Flt3-ITD kinase inhibitor acquired resistance” (PLoS ONE, 2019).

Experiments:
Assay in all cases: KINOMEscan
Type in all cases: binding
Conditions in all cases: 1.0 µM
CHEK1 = biological target: T1, CHEK1 (Homo sapiens, UniProt O14757)
T1 construct: purchased Eurofins/DiscoverX KINOMEscan scanMAX
Experimental: (§1) Kinase retention to the immobilized ligand is then measured using quantitative real-time PCR for each kinase-specific DNA barcode.

SYK = biological target: T2, SYK (Homo sapiens, UniProt P43405)
T2 construct: purchased Eurofins/DiscoverX KINOMEscan scanMAX
Experimental: as §1

SNRK = biological target: T3, SNRK (Homo sapiens, UniProt Q9NRH2)
T3 construct: purchased Eurofins/DiscoverX KINOMEscan scanMAX
Experimental: as §1

MEK6 = biological target: T4, MEK6 (Homo sapiens, UniProt P52564)
T4 construct: purchased Eurofins/DiscoverX KINOMEscan scanMAX
Experimental: as §1

HUNK = biological target: T5, HUNK (Homo sapiens, UniProt P57058)
T5 construct: purchased Eurofins/DiscoverX KINOMEscan scanMAX
Experimental: as §1

ZAP70 = biological target: T6, ZAP70 (Homo sapiens, UniProt P43403)
T6 construct: purchased Eurofins/DiscoverX (KINOMEscan scanMAX service)
Experimental: as §1

AMPK-alpha1 = biological target: T7, AMPK-alpha1 (Homo sapiens, UniProt Q13131)
T7 construct: purchased Eurofins/DiscoverX KINOMEscan scanMAX
T7 sequence (Q13131 whole entry): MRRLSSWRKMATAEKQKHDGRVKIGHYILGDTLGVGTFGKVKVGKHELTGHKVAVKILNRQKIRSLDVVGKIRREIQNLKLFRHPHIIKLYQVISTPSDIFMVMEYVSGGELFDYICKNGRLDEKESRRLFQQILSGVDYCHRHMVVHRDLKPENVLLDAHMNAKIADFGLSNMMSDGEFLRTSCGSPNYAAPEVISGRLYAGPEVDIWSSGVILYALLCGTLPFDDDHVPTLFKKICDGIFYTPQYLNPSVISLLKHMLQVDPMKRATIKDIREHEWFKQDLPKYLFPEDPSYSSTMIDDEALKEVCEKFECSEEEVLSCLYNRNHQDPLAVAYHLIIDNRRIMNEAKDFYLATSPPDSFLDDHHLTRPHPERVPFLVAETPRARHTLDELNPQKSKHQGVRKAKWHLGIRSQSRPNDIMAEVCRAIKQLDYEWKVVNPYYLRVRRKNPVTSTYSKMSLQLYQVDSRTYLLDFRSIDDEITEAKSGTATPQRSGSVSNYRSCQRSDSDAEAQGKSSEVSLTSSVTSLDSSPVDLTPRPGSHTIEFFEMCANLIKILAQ
Experimental: as §1

WNK3 = biological target: T8, WNK3 (Homo sapiens, UniProt Q9BYP7)
T8 construct: DNA tag (qPCR barcode); purchased Eurofins/DiscoverX KINOMEscan scanMAX
Experimental: as §1

RAF1 = biological target: T9, RAF1 (Homo sapiens, UniProt P04049)
T9 construct: purchased Eurofins/DiscoverX KINOMEscan scanMAX
Experimental: as §1

HIPK1 = biological target: T10, HIPK1 (Homo sapiens, UniProt Q86Z02)
T10 construct: purchased Eurofins/DiscoverX KINOMEscan scanMAX
Experimental: as §1

[1] = biological target: T11, ABL1(F317L)-phosphorylated (Homo sapiens, UniProt P00519, F317L)
T11 construct: purchased Eurofins/DiscoverX KINOMEscan scanMAX
Experimental: as §1

CDKL3 = biological target: T12, CDKL3 (Homo sapiens, UniProt Q8IVW4)
T12 construct: purchased Eurofins/DiscoverX KINOMEscan scanMAX
Experimental: as §1

ERN1 = biological target: T13, ERN1 (Homo sapiens, UniProt O75460)
T13 construct: purchased Eurofins/DiscoverX KINOMEscan scanMAX
T13 sequence (O75460 19-977): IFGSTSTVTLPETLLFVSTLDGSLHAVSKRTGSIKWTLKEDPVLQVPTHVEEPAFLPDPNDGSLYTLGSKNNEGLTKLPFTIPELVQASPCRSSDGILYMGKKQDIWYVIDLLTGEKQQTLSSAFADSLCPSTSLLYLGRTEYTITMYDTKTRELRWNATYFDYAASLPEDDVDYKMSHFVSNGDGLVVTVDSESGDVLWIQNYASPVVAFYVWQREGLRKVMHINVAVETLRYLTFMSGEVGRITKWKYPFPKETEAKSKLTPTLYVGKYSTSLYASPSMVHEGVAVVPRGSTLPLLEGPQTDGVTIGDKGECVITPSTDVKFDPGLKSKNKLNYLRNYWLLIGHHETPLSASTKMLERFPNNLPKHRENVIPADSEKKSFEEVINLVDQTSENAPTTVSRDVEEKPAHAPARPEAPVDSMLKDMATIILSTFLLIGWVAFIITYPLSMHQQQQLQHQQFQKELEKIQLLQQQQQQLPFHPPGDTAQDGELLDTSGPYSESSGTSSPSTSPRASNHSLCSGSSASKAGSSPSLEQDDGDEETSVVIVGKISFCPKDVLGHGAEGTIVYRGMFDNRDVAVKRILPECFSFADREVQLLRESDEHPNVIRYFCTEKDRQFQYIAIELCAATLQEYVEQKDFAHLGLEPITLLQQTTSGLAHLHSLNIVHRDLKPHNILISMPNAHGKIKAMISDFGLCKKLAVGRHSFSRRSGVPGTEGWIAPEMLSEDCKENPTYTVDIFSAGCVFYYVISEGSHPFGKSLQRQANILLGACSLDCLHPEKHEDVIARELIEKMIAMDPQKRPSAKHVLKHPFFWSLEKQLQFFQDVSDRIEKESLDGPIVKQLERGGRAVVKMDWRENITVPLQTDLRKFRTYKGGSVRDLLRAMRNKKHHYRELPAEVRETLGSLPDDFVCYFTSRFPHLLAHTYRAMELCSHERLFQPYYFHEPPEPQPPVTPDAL
Experimental: as §1

ALK(C1156Y) = biological target: T14, ALK(C1156Y) (Homo sapiens, UniProt Q9UM73, C1156Y)
T14 construct: purchased Eurofins/DiscoverX KINOMEscan scanMAX
Experimental: as §1

GRK2 = biological target: T15, GRK2 (Homo sapiens, UniProt P25098)
T15 construct: purchased Eurofins/DiscoverX KINOMEscan scanMAX
T15 sequence (P25098 whole entry): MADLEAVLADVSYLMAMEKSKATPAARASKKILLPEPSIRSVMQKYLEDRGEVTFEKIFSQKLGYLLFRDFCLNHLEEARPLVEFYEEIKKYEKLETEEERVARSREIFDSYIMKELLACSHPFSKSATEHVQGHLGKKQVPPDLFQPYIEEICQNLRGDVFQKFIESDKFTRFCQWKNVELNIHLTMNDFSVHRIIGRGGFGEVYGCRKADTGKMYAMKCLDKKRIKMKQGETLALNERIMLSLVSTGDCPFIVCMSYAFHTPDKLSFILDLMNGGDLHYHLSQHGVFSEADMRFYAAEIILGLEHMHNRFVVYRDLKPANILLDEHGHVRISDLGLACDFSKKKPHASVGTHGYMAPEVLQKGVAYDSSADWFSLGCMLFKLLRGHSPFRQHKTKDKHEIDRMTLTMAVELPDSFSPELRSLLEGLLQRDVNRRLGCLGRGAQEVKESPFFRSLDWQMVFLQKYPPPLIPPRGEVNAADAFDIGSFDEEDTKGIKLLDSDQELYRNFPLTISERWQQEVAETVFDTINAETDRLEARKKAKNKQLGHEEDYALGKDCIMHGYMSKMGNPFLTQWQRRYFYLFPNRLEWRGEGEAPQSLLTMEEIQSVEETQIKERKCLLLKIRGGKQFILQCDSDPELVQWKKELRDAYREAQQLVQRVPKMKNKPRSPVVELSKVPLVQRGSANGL
Experimental: as §1

MST3 = biological target: T16, MST3 (Homo sapiens, UniProt Q9Y6E0)
T16 construct: purchased Eurofins/DiscoverX KINOMEscan scanMAX
Experimental: as §1

TTK = biological target: T17, TTK (Homo sapiens, UniProt P33981)
T17 construct: DNA tag (qPCR barcode); purchased Eurofins/DiscoverX KINOMEscan scanMAX
Experimental: as §1

KIT(V559D,T670I) = biological target: T18, KIT(V559D,T670I) (Homo sapiens, UniProt P10721, T670I/V559D)
T18 construct: purchased Eurofins/DiscoverX KINOMEscan scanMAX
Experimental: as §1

TLK1 = biological target: T19, TLK1 (Homo sapiens, UniProt Q9UKI8)
T19 construct: purchased Eurofins/DiscoverX KINOMEscan scanMAX
Experimental: as §1

ADCK3 = biological target: T20, ADCK3 (Homo sapiens, UniProt Q8NI60)
T20 construct: purchased Eurofins/DiscoverX KINOMEscan scanMAX
Experimental: as §1

EPHA5 = biological target: T21, EPHA5 (Homo sapiens, UniProt P54756)
T21 construct: purchased Eurofins/DiscoverX KINOMEscan scanMAX
T21 sequence (P54756 25-1037): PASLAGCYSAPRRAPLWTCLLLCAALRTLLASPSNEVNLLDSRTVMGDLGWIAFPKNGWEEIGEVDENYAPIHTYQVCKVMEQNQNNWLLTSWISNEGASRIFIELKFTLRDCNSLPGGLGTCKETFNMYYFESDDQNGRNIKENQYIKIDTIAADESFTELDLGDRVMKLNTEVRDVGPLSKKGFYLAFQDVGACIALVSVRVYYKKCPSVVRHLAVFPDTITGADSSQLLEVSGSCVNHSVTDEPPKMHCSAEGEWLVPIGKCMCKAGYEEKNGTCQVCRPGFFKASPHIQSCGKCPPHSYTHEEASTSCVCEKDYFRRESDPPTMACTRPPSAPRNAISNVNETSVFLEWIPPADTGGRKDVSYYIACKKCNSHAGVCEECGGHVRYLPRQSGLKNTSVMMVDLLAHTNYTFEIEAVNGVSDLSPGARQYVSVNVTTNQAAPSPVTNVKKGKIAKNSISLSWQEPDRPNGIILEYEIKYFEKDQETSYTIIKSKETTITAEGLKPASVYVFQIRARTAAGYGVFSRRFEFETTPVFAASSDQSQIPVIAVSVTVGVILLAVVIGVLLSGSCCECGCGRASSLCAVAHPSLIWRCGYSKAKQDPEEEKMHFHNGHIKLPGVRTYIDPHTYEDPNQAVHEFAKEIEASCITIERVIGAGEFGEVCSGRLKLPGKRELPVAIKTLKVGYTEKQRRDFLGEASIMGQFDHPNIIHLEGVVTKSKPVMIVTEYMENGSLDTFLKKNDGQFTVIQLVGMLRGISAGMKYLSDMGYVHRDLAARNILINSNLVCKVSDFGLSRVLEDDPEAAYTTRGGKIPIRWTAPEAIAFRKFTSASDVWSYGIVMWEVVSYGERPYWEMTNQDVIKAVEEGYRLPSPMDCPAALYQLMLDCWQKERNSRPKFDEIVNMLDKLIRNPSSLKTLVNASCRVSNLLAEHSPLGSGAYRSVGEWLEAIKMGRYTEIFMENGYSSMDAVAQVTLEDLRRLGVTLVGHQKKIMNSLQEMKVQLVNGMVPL
Experimental: as §1

MARK3 = biological target: T22, MARK3 (Homo sapiens, UniProt P27448)
T22 construct: purchased Eurofins/DiscoverX KINOMEscan scanMAX
Experimental: as §1

STK36 = biological target: T23, STK36 (Homo sapiens, UniProt Q9NRP7)
T23 construct: purchased Eurofins/DiscoverX KINOMEscan scanMAX
Experimental: as §1

RIPK1 = biological target: T24, RIPK1 (Homo sapiens, UniProt Q13546)
T24 construct: purchased Eurofins/DiscoverX KINOMEscan scanMAX
Experimental: as §1

TRPM6 = biological target: T25, TRPM6 (Homo sapiens, UniProt Q9BX84)
T25 construct: DNA tag (qPCR barcode); purchased Eurofins/DiscoverX KINOMEscan scanMAX
Experimental: as §1

CAMK1D = biological target: T26, CAMK1D (Homo sapiens, UniProt Q8IU85)
T26 construct: purchased Eurofins/DiscoverX KINOMEscan scanMAX
Experimental: as §1

ROCK2 = biological target: T27, ROCK2 (Homo sapiens, UniProt O75116)
T27 construct: purchased Eurofins/DiscoverX KINOMEscan scanMAX
Experimental: as §1

PIK3CA(M1043I) = biological target: T28, PIK3CA(M1043I) (Homo sapiens, UniProt P42336, M1043I)
T28 construct: purchased Eurofins/DiscoverX KINOMEscan scanMAX
Experimental: as §1

KIT-autoinhibited = biological target: T29, KIT-autoinhibited (Homo sapiens, UniProt P10721)
T29 construct: purchased Eurofins/DiscoverX KINOMEscan scanMAX
Experimental: as §1

CSNK1G3 = biological target: T30, CSNK1G3 (Homo sapiens, UniProt Q9Y6M4)
T30 construct: purchased Eurofins/DiscoverX KINOMEscan scanMAX
Experimental: as §1

NIK = biological target: T31, NIK (Homo sapiens, UniProt Q99558)
T31 construct: purchased Eurofins/DiscoverX KINOMEscan scanMAX
Experimental: as §1

DRAK1 = biological target: T32, DRAK1 (Homo sapiens, UniProt Q9UEE5)
T32 construct: purchased Eurofins/DiscoverX KINOMEscan scanMAX
Experimental: as §1

ERK8 = biological target: T33, ERK8 (Homo sapiens, UniProt Q8TD08)
T33 construct: purchased Eurofins/DiscoverX KINOMEscan scanMAX
Experimental: as §1

RIPK5 = biological target: T34, RIPK5 (Homo sapiens, UniProt Q6XUX3)
T34 construct: purchased Eurofins/DiscoverX KINOMEscan scanMAX
Experimental: as §1

PDPK1 = biological target: T35, PDPK1 (Homo sapiens, UniProt O15530)
T35 construct: purchased Eurofins/DiscoverX KINOMEscan scanMAX
Experimental: as §1

BRSK1 = biological target: T36, BRSK1 (Homo sapiens, UniProt Q8TDC3)
T36 construct: purchased Eurofins/DiscoverX KINOMEscan scanMAX
Experimental: as §1

TIE2 = biological target: T37, TIE2 (Homo sapiens, UniProt Q02763)
T37 construct: purchased Eurofins/DiscoverX KINOMEscan scanMAX
Experimental: as §1

[2] = biological target: T38, ABL1(M351T)-phosphorylated (Homo sapiens, UniProt P00519, M351T)
T38 construct: purchased Eurofins/DiscoverX KINOMEscan scanMAX
Experimental: as §1

CSNK2A2 = biological target: T39, CSNK2A2 (Homo sapiens, UniProt P19784)
T39 construct: purchased Eurofins/DiscoverX KINOMEscan scanMAX
T39 sequence (P19784 whole entry): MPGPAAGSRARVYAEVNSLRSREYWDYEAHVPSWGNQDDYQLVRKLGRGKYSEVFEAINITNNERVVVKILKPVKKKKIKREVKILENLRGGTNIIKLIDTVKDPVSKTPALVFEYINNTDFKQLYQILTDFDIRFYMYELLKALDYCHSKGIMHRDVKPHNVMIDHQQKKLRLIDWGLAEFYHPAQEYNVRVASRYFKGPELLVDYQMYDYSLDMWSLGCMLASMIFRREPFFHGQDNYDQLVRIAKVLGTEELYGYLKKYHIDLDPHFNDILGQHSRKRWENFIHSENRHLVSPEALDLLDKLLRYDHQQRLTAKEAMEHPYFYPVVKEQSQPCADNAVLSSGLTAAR
Experimental: as §1

PKN2 = biological target: T40, PKN2 (Homo sapiens, UniProt Q16513)
T40 construct: purchased Eurofins/DiscoverX KINOMEscan scanMAX
T40 sequence (Q16513 whole entry): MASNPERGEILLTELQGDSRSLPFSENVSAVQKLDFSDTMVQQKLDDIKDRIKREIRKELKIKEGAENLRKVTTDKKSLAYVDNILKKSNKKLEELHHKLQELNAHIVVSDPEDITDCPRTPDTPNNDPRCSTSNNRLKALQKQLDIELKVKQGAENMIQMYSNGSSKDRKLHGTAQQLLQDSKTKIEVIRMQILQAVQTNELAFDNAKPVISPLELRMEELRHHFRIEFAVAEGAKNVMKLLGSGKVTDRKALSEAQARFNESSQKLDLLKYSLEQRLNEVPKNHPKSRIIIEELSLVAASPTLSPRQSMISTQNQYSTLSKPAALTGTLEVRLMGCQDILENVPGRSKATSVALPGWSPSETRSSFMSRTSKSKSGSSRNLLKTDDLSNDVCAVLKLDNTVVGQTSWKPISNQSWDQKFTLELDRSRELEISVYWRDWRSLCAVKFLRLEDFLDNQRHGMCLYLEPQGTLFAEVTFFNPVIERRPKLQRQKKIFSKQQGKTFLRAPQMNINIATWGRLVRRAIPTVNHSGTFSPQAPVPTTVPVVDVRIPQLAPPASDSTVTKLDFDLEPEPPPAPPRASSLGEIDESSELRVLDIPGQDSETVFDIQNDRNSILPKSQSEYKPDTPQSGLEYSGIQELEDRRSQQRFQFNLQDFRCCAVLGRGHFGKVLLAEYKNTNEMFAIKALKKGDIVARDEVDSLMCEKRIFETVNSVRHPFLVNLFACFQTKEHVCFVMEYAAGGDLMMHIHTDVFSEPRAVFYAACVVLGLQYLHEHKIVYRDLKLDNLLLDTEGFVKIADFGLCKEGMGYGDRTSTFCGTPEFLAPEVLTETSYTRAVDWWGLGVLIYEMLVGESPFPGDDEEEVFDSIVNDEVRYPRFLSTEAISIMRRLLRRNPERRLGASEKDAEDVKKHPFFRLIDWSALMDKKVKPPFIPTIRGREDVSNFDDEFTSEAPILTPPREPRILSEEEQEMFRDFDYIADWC
Experimental: as §1

CAMKK2 = biological target: T41, CAMKK2 (Homo sapiens, UniProt Q96RR4)
T41 construct: purchased Eurofins/DiscoverX KINOMEscan scanMAX
Experimental: as §1

QSK = biological target: T42, QSK (Homo sapiens, UniProt Q9Y2K2)
T42 construct: purchased Eurofins/DiscoverX KINOMEscan scanMAX
Experimental: as §1

T1 sequence (O14757 whole entry): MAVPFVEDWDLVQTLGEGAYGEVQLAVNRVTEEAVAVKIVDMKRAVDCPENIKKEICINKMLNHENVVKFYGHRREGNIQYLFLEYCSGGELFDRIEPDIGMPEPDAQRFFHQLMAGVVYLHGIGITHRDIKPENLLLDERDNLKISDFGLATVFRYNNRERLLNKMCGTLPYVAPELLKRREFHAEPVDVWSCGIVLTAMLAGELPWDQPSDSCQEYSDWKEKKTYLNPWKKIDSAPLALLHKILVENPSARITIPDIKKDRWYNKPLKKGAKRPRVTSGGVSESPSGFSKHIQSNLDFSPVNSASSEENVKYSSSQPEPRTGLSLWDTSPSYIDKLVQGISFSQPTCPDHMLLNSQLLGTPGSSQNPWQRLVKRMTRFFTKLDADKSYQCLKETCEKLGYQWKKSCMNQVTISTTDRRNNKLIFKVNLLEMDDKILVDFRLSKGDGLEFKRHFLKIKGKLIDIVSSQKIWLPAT

CN1CCN(C2CCC(n3cc(-c4ccc(Oc5ccccc5)cc4)c4c(N)ncnc43)CC2)CC1 (stereo not drawn) [A-419259]
% Control (CHEK1): 54% | % Control (SYK): 100% | % Control (SNRK): 94% | % Control (MEK6): 98% | % Control (HUNK): 100% | % Control (ZAP70): 100% | % Control (AMPK-alpha1): 43% | % Control (WNK3): 46% | % Control (RAF1): 40% | % Control (HIPK1): 80% | % Control [1]: 0% | % Control (CDKL3): 100% | % Control (ERN1): 82% | % Control (ALK(C1156Y)): 21% | % Control (GRK2): 100% | % Control (MST3): 80% | % Control (TTK): 3.5% | % Control (KIT(V559D,T670I)): 40% | % Control (TLK1): 93% | % Control (ADCK3): 100% | % Control (EPHA5): 80% | % Control (MARK3): 83% | % Control (STK36): 18% | % Control (RIPK1): 100% | % Control (TRPM6): 100% | % Control (CAMK1D): 97% | % Control (ROCK2): 62% | % Control (PIK3CA(M1043I)): 100% | % Control (KIT-autoinhibited): 6.9% | % Control (CSNK1G3): 100% | % Control (NIK): 100% | % Control (DRAK1): 65% | % Control (ERK8): 100% | % Control (RIPK5): 7.1% | % Control (PDPK1): 100% | % Control (BRSK1): 14% | % Control (TIE2): 15% | % Control [2]: 1.6% | % Control (CSNK2A2): 66% | % Control (PKN2): 100% | % Control (CAMKK2): 100% | % Control (QSK): 93%
